IC50 data for 19 compounds are collected here from US12286443B2, “Bycyclic JAK inhibitors and uses thereof” (Insilico Medicine IP Limited, priority 2019, dated 2025).

Bounds are passed on as bounds.

Assay [1] relates to Hut-78 cells. Briefly: Inhibition in Hut-78 cells (IL-2 stimulated, HTRF). In kind it is cell-based. The settings on record: Homo sapiens, HuT78; compound 2 hours at 37° C., then IL-2 100 ng/mL 10 min; HTRF; read-out: Hut-78 cells IC50. Here is the method:
Exemplary compounds were assayed to determine potency in inhibiting Hut-78 cells by determining IC50 values.
Hut-78 cells were cultures in IMDM+20% FBS medium. Cells were maintained in log phase before the assay. Cell pellets were collected and resuspended in serum-free and phenol-free RPMI 1640 medium. 40,000 cells/well (10 μL) were seeded in each well of a 384-well plate and incubated with and without compound for 2 hours at 37° C. and 5% C02. IL-2 was added (2 μL, final concentration 100 ng/mL) and the mixture was incubated for 10 min. Cells were lysed by adding 4 μL labeled antibodies and the mixture was incubated overnight. The plate was read using the HTRF protocol on an Envision plate reader. The data was analyzed using XL-fit software (Supplier: ID business solutions Ltd.; Software version: XL fit 5.0). Inhibition %=(Max−Sample value)/(Max−Min)*100.
In the table, “A” indicates an IC50 of less than 0.5 μM, “B” indicates an IC50 range from 0.5 μM to 1 μM; and “C” indicates an IC50 range from 1 μM to 10 μM. Also, “na” indicates data is not available.
Background: In TR-FRET formats the signal depends on donor and acceptor labels being close together.

Assay [2] has as its target T1, JAK1 (Homo sapiens, UniProt P23458).
T1 construct: purchased Invitrogen PV4775
Briefly: Inhibition of JAK1 kinase, LANCE Ultra TR-FRET assay. The format is biochemical. The note with it: 2 nM JAK1, 2x ATP 76 μM, 15 min pre-incubation, 90 min reaction, 23° C. Here is the method:
(§1) Exemplary compounds were assayed to determine potency in inhibiting activity of JAK1-3 and TYK2 kinases by determining IC50 values.
(§2) The sources of test materials and equipment are as follows: JAK1 (Invitrogen, Cat. No PV4775), JAK2 (Invitrogen, Cat. No PV4210), JAK3 (Invitrogen, Cat. No PV4080), TYK2 (Invitrogen, Cat. No PR8440C), ATP (Sigma, Cat. No. A7699-1G), DMSO (Sigma, Cat. No. D2650), DTT (Sigma, Cat. No. 43815), 384 wells_compound plate (Greiner, Cat. No. 781280), 384 wells_assay plate (Perkin Elmer, Cat. No. 6007299), LANCE Ultra ULight™-JAK-1 peptide (Perkin Elmer, Cat. No. TRF0121), LANCET™ Eu-W1024 Anti-phosphotyrosine (PT66) (Perkin Elmer, Cat. No. AD0069), LANCET™ Detection Buffer(Perkin Elmer, Cat. No. CR97-100).
(§3) The concentrations of test compounds varied from 100 μM to 1.7 nM with 3-fold dilution, 11 points, in duplicates while the concentrations of the reference compound, Tofacitinib, varied from 1 μM to 0.017 nM with 3-fold dilution, 11 points, in duplicates.
(§4) The assay buffer contained 50 mM HEPES (pH 7.5), 0.01% Brij-35, 10 mM MgCl2, 1 mM EDTA, 2 mM DTT. Incubations were carried out at 23° C.
(§5) Prior to the assay, enzyme, peptide substrate and serially diluted test compounds were pre-incubated together in assay buffer (5 μL) for 15 minutes (peptide substrate concentration: 50 nM; JAK enzyme concentrations: 2 nM JAK1; […]; […] and 4 nM TYK2). And the assay was initiated by the addition of 5 μL assay buffer containing 2× final ATP concentration (these are the 2×ATP concentrations: 76 μM JAK1; 24 μM JAK2; 8 μM JAK3 and 30 μM TYK2). Following the 90-minute incubation, antibody conjugated with Eu is dissolved in detection buffer to add into wells and then incubated for 60 minutes. The 10 μL detection buffer contains EDTA to stop the enzymatic reaction. The plate is analyzed by Perkin Elmer Envision on TR-FRET mode. The high ratio of 665/615 represents no inhibition of kinase reaction while the low ratio of 665/615 represents complete inhibition of kinase reaction.
(§6) Curves are fit by XLFIT5 as inhibition rate % vs. log [compound concentration] using 4 parameters logistic model 205.
(§7) In the table, “A” indicates an IC50 of less than 100 nM, “B” indicates an IC50 range from 100 nM to 500 nM; “C” indicates an IC50 range from 500 nM to 2 μM; and “D” indicates an IC50 greater than 2 μM. Also, “na” indicates data is not available.

Assay [3] concerns the target T2, JAK2 (Homo sapiens, UniProt O60674).
T2 construct: purchased Invitrogen PV4210
The assay is described as follows: Inhibition of JAK2 kinase, LANCE Ultra TR-FRET assay. The format is biochemical. The note with it: 2x ATP 24 μM, 15 min pre-incubation, 90 min reaction, 23° C. Here is the method:
as §1, §2, §3, §4, §5, §6, §7

Assay [4] deals with T3, TYK2 (Homo sapiens, UniProt P29597).
T3 construct: purchased Invitrogen PR8440C
Briefly: Inhibition of TYK2 kinase, LANCE Ultra TR-FRET assay. The format is biochemical. The settings on record: 4 nM TYK2, 2x ATP 30 μM, 15 min pre-incubation, 90 min reaction, 23° C., read-out: tyk IC50. How it is done: as §1, §2, §3, §4, §5, §6, §7

Assay [5] addresses T4, JAK3 (Homo sapiens, UniProt P52333).
T4 construct: purchased Invitrogen PV4080
T4 sequence (P52333 1-1124): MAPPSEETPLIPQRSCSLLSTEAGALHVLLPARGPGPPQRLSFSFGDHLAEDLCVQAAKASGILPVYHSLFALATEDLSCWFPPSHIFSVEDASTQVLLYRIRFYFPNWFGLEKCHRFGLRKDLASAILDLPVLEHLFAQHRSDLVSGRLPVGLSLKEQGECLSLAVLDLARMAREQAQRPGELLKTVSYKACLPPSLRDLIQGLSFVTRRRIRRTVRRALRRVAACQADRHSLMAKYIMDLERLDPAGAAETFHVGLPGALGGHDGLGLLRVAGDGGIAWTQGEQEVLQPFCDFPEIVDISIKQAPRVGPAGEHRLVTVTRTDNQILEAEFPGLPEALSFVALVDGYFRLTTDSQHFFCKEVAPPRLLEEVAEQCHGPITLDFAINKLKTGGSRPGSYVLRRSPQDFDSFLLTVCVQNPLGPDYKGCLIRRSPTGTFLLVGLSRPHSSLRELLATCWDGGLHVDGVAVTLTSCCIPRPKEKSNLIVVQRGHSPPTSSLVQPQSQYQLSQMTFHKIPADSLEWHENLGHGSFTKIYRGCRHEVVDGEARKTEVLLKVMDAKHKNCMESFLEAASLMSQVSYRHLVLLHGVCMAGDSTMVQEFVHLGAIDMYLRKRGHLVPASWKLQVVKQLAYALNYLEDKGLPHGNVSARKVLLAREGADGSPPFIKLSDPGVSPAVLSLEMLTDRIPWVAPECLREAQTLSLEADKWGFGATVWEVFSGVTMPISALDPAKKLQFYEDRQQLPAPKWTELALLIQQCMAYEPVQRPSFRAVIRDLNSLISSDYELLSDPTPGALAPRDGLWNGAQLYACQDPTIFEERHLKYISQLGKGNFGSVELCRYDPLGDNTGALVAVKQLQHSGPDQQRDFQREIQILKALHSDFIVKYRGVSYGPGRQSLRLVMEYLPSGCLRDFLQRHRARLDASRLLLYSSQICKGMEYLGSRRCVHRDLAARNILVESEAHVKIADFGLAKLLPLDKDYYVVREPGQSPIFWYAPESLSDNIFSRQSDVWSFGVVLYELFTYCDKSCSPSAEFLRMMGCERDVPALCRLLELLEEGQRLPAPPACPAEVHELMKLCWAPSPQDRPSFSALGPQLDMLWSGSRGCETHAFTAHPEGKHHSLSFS
The assay is described as follows: Inhibition of JAK3 kinase, LANCE Ultra TR-FRET assay. The note with it: 2x ATP 8 μM, 15 min pre-incubation, 90 min reaction, 23° C. The format is biochemical. How it is done: as §1, §2, §3, §4, §5, §6, §7

T1 sequence (P23458 whole entry): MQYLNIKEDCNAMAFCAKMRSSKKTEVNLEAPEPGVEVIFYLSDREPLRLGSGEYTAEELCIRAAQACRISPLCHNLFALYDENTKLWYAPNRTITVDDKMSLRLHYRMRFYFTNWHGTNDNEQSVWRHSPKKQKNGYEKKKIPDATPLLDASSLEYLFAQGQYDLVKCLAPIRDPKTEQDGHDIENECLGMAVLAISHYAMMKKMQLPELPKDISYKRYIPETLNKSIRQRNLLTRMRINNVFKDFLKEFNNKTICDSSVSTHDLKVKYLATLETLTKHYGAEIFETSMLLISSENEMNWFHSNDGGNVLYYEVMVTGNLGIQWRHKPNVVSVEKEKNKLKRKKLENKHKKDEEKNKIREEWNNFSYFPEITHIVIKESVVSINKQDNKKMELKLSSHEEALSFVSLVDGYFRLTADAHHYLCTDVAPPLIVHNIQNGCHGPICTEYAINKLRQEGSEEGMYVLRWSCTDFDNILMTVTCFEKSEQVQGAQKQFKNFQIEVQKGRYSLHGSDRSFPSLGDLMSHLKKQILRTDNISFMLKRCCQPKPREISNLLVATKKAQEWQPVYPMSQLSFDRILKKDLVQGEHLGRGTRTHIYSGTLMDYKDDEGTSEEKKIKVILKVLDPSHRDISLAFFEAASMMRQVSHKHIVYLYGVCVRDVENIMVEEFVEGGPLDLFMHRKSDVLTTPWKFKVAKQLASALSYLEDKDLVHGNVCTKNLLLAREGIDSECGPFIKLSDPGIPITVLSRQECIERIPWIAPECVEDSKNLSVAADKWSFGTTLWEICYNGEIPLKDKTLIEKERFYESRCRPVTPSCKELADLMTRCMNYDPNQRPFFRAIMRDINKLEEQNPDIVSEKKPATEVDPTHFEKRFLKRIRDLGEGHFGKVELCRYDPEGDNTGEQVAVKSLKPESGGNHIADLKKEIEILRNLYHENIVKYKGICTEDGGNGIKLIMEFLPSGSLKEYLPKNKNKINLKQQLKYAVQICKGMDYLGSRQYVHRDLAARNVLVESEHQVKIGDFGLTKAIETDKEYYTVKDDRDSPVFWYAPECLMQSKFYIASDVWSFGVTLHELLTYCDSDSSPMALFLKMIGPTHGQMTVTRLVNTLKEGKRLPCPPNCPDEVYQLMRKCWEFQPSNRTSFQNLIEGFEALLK
T2 sequence (O60674 whole entry): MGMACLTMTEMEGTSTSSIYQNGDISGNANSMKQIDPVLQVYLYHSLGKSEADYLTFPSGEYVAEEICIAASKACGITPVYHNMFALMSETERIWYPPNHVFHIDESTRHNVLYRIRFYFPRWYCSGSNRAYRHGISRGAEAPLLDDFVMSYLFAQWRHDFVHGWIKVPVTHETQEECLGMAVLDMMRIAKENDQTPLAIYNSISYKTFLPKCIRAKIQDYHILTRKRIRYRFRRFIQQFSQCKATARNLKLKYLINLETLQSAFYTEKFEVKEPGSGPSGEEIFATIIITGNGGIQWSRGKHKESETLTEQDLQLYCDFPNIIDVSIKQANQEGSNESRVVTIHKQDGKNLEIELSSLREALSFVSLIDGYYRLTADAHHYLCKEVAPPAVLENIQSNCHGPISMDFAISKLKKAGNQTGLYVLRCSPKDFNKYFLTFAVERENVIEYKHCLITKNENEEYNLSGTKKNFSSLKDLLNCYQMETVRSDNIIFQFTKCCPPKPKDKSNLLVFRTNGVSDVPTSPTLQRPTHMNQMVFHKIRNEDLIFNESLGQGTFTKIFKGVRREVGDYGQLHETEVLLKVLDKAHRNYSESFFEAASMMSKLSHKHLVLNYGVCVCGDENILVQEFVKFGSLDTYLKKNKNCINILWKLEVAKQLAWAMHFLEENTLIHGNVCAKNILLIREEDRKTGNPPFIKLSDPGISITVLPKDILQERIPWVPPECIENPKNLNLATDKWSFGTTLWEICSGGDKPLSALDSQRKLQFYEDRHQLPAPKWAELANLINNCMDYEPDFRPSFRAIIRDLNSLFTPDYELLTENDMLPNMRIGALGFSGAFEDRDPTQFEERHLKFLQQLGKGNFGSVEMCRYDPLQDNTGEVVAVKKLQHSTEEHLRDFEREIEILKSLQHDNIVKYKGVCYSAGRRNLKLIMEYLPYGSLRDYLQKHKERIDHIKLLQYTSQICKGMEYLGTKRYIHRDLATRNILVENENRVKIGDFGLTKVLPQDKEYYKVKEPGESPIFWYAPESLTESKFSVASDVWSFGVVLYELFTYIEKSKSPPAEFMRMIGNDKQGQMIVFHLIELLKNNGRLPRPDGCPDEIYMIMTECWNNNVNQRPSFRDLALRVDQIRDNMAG
T3 sequence (P29597 whole entry): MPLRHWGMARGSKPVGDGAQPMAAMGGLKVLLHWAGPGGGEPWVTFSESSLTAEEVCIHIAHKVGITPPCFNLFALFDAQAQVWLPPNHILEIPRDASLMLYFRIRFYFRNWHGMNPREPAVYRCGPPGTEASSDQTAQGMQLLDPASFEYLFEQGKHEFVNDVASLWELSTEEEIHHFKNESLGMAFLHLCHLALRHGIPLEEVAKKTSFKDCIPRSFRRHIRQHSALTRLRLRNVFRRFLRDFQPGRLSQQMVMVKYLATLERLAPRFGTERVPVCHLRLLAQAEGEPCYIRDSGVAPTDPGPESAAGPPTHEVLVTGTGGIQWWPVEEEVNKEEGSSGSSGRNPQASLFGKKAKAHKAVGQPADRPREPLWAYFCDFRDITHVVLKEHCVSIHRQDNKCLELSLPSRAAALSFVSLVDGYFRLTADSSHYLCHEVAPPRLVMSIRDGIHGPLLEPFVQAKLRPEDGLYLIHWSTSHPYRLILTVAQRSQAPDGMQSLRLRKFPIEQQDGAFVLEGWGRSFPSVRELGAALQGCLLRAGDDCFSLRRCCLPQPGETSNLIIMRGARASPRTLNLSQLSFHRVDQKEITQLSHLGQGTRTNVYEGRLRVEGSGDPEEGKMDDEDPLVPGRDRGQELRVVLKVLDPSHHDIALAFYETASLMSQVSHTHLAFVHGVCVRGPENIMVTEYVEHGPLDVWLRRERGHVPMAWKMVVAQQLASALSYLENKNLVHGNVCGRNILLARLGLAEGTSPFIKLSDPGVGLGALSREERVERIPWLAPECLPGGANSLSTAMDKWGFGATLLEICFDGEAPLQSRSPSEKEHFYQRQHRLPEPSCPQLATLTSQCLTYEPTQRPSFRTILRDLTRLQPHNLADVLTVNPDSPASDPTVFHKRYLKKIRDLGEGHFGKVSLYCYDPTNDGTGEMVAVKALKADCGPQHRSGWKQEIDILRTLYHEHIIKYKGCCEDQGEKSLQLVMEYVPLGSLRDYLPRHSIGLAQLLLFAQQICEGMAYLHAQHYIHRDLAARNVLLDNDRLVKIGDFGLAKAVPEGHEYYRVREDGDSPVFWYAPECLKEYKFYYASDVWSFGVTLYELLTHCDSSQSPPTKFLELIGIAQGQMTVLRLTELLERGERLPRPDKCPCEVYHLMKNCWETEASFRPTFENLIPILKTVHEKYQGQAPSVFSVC

`CCS(=O)(=O)n1nc(C(=O)NCCC(F)(F)F)c2c1CCN(c1ncnc3[nH]ccc13)C2` [Compound 102]: the IC50 was 1000 to 10000 nM in assay [1]; 500 to 2000 nM in assay [2]; 100 to 500 nM in assay [3]; > 2000 nM in assay [4]; < 100 nM in assay [5].

`O=C(NCCC(F)(F)F)c1nn(C(=O)CCc2ccccc2)c2c1CN(c1ncnc3[nH]ccc13)CC2` [Compound 103]: the 50% inhibitory concentration (IC50) is 1000 to 10000 nM in assay [1]; 100 to 500 nM in assay [2]; 100 to 500 nM in assay [3]; > 2000 nM in assay [4]; < 100 nM in assay [5].

With `O=C(NCCC(O)C1CCCC1)c1noc2c1CN(c1ncnc3[nH]ccc13)CC2` (stereo not drawn) [Compound 159], the concentration for half-maximal inhibition (IC50) was 500 to 2000 nM in assay [2], > 2000 nM in assay [3], > 2000 nM in assay [4] and 100 to 500 nM in assay [5].

In the case of `CN(C)C1CN(CCNC(=O)c2noc3c2CN(c2ncnc4[nH]ccc24)CC3)C1` [Compound 160], the half-maximal inhibitory concentration (IC50) in assay [2] was 500 to 2000 nM; in assay [3], > 2000 nM; in assay [4], > 2000 nM; in assay [5], 500 to 2000 nM.

With `O=C(NCCN1CCS(=O)(=O)CC1)c1noc2c1CN(c1ncnc3[nH]ccc13)CC2` [Compound 161], the IC50 in assay [2] was 500 to 2000 nM; in assay [3], > 2000 nM; in assay [4], > 2000 nM; in assay [5], 500 to 2000 nM.

Take `O=C(NCCN1CCOCC1)c1noc2c1CN(c1ncnc3[nH]ccc13)CC2` [Compound 162]: the half-inhibitory concentration (IC50) in assay [2] is > 2000 nM; in assay [3], > 2000 nM; in assay [4], > 2000 nM; in assay [5], 500 to 2000 nM.

`O=C(NCCc1ccccc1)c1noc2c1CN(c1ncnc3[nH]ccc13)CC2` [Compound 163]: the half-inhibitory concentration (IC50) in assay [2] was 100 to 500 nM; in assay [3] it was 100 to 500 nM; in assay [4], > 2000 nM; in assay [5], < 100 nM.

Regarding `CS(=O)(=O)N1CCCC1CCNC(=O)c1noc2c1CN(c1ncnc3[nH]ccc13)CC2` (stereo not drawn) [Compound 164], the half-maximal inhibitory concentration (IC50) was 500 to 2000 nM in assay [2], > 2000 nM in assay [3], > 2000 nM in assay [4] and 100 to 500 nM in assay [5].

Regarding `CS(=O)(=O)N1CCC(CCNC(=O)c2noc3c2CN(c2ncnc4[nH]ccc24)CC3)C1` (stereo not drawn) [Compound 165], the half-inhibitory concentration (IC50) in assay [2], in assay [3], in assay [4] and in assay [5] was > 2000 nM each time.

Consider `CS(=O)(=O)N1CCC(CNC(=O)c2noc3c2CN(c2ncnc4[nH]ccc24)CC3)C1` (stereo not drawn) [Compound 166], for which the IC50 is 500 to 2000 nM in assay [2], 500 to 2000 nM in assay [3], > 2000 nM in assay [4] and 100 to 500 nM in assay [5].

In the case of `CS(=O)(=O)N1CCN(CCNC(=O)c2noc3c2CN(c2ncnc4[nH]ccc24)CC3)CC1` [Compound 167], the IC50 is 100 to 500 nM in assay [2], 500 to 2000 nM in assay [3], > 2000 nM in assay [4] and 100 to 500 nM in assay [5].

As to `CS(=O)(=O)N1CC(CNC(=O)c2noc3c2CN(c2ncnc4[nH]ccc24)CC3)C1` [Compound 168], the half-inhibitory concentration (IC50) in assay [2] was 500 to 2000 nM; in assay [3], 500 to 2000 nM; in assay [4], > 2000 nM; in assay [5] it was 100 to 500 nM.

As to `CS(=O)(=O)N1CC(CCNC(=O)c2noc3c2CN(c2ncnc4[nH]ccc24)CC3)C1` [Compound 169], the IC50 in assay [2] is 500 to 2000 nM; in assay [3], 500 to 2000 nM; in assay [4], > 2000 nM; in assay [5] it was 100 to 500 nM.

For `CS(=O)(=O)C(CCNC(=O)c1noc2c1CN(c1ncnc3[nH]ccc13)CC2)C(F)(F)F` (stereo not drawn) [Compound 170], the IC50 in assay [2] was 100 to 500 nM; in assay [3], 100 to 500 nM; in assay [4], > 2000 nM; in assay [5] it was 100 to 500 nM.

`O=C(NCC1CC1)c1noc2c1CN(c1ncnc3[nH]ccc13)CC2` [Compound 180]: the IC50 in assay [2] was 100 to 500 nM; in assay [3], 100 to 500 nM; in assay [4] it was > 2000 nM; in assay [5], < 100 nM.

For the compound `O=C(NCCC(F)(F)F)C1=NOC2CN(c3ncnc4[nH]ccc34)CC12` (stereo not drawn) [Compound 187], the IC50 in assay [2] is 100 to 500 nM; in assay [3] it was 500 to 2000 nM; in assay [4] it was > 2000 nM; in assay [5], 100 to 500 nM.

For the compound `O=C(NCCC(F)(F)F)c1noc2c1CN(c1ncnc3[nH]cnc13)CC2` [Compound 188], the IC50 in assay [2] was 100 to 500 nM; in assay [3] it was 500 to 2000 nM; in assay [4] it was > 2000 nM; in assay [5] it was 100 to 500 nM.

`O=C(NCCC(F)(F)F)c1noc2c1CN(c1ncnc3[nH]ncc13)CC2` [Compound 189]: the IC50 was 100 to 500 nM in assay [2], > 2000 nM in assay [3], > 2000 nM in assay [4] and 100 to 500 nM in assay [5].

For `CSC(CNC(=O)c1noc2c1CN(c1ncnc3[nH]ccc13)CC2)C(F)(F)F` (stereo not drawn) [Compound 191], the IC50 was 100 to 500 nM in assay [2], 100 to 500 nM in assay [3], > 2000 nM in assay [4] and 100 to 500 nM in assay [5].

As usually defined, the IC50 is the concentration that gives 50% inhibition.
